The record followed here is patent US20050054006A1, “Combinatorial fluorescent library based on the styryl scaffold” (New York University, priority 2003, published 2005).

The nature of this data set: Fluorescence excitation/emission of the styryl dye library compounds. It is filed as physicochemical. The note with it: EX/EM peak no. 1.
On to `C[n+]1c(C=Cc2ccc(Br)cc2)ccc2ccccc21.[I-]` [Compound H5], for which the “EM(nm)” value is listed as 640 nm and the “EX(nm)” value turned out to be 480 nm.
On the same counts, the results for `C[n+]1c(C=Cc2ccc(Cl)cc2)ccc2ccccc21.[I-]` [Compound H6] are 640 nm and 530 nm.
Consider `Cc1ccccc1C=Cc1ccc2ccccc2[n+]1C.[I-]` [Compound H7], for which the “EM(nm)” value is 650 nm and the “EX(nm)” value worked out at 420 nm.
On the same counts, the results for `Cc1ccc(/C=C/c2ccc3ccccc3[n+]2C)cc1.[I-]` [Compound H8] are 650 nm and 530 nm.
As for `COc1ccc(C=Cc2ccc3ccccc3[n+]2C)cc1OC.[I-]` [Compound H11], the “EM(nm)” value came to 570 nm and the “EX(nm)” value is given as 460 nm.
In the same order, the values of `COc1cc(C=Cc2ccc3ccccc3[n+]2C)cc(OC)c1OC.[I-]` [Compound H13] are 590 nm and 420 nm.
In the same order, the values of `C[n+]1c(C=Cc2c3ccccc3cc3ccccc23)ccc2ccccc21.[I-]` [Compound H34] are 650 nm and 460 nm.
With `C[n+]1c(C=Cc2ccc3ccc4cccc5ccc2c3c45)ccc2ccccc21.[I-]` [Compound H41], the “EM(nm)” value worked out at 640 nm and the “EX(nm)” value is 480 nm.
For `COc1ccc2c(ccc(C=Cc3ccc(Br)cc3)[n+]2C)c1.[I-]` [Compound I5], the “EM(nm)” value was 650 nm and the “EX(nm)” value was 420 nm.
For the molecule `COc1ccc2c(ccc(C=Cc3ccc(OC)c(OC)c3)[n+]2C)c1.[I-]` [Compound I11], the “EM(nm)” value is 560 nm and the “EX(nm)” value was found to be 430 nm.
Take `COc1ccc2c(ccc(C=Cc3cc(OC)c(OC)c(OC)c3)[n+]2C)c1.[I-]` [Compound I13]: the “EM(nm)” value was 580 nm and the “EX(nm)” value turned out to be 430 nm.
In the case of `COc1ccc2c(ccc(C=Cc3ccc(OC)c(O)c3)[n+]2C)c1.[I-]` [Compound I15], the “EM(nm)” value was determined as 520 nm and the “EX(nm)” value was 360 nm.
For `COc1ccc2c(ccc(C=Cc3ccc([N+](=O)[O-])cc3)[n+]2C)c1.[I-]` [Compound I22], the “EM(nm)” value turned out to be 510 nm and the “EX(nm)” value amounted to 360 nm.
Regarding `COc1ccc2c(ccc(C=Cc3c(OC)ccc4ccccc34)[n+]2C)c1.[I-]` [Compound I23], the “EM(nm)” value is on record as 550 nm and the “EX(nm)” value was 340-360 nm.
In the case of `COc1ccc2c(ccc(C=Cc3ccccc3F)[n+]2C)c1.[I-]` [Compound I29], the “EM(nm)” value amounted to 580 nm.
On to `COc1ccc2c(ccc(C=Cc3c4ccccc4cc4ccccc34)[n+]2C)c1.[I-]` [Compound I34], for which the “EM(nm)” value was 650 nm and the “EX(nm)” value is 490 nm.
On the same counts, the results for `COc1ccc2c(ccc(C=CC=Cc3ccccc3[N+](=O)[O-])[n+]2C)c1.[I-]` [Compound I36] are 530 nm and 360 nm.
On the same counts, the results for `COc1ccc2c(ccc(C=Cc3ccc4c(c3)OCO4)[n+]2C)c1.[I-]` [Compound I39] are 500 nm and 380 nm.
In the case of `COc1ccc2c(ccc(C=Cc3ccc4ccc5cccc6ccc3c4c56)[n+]2C)c1.[I-]` [Compound I41], the “EM(nm)” value is 630 nm and the “EX(nm)” value is recorded as 480 nm.
In the same order, the values of `COc1ccc(C=Cc2cc[n+](C)c(-c3cc(C)ccn3)c2)cc1OC.[I-]` [Compound J11] are 560 nm and 420 nm.
With `COc1cc(C=Cc2cc[n+](C)c(-c3cc(C)ccn3)c2)cc(OC)c1OC.[I-]` [Compound J13], the “EM(nm)” value is reported as 590 nm.
Regarding `COc1ccc(C=Cc2cc[n+](C)c(-c3cc(C)ccn3)c2)c2ccccc12.[I-]` [Compound J14], the “EM(nm)” value is listed as 580 nm and the “EX(nm)” value is 420-480 nm.
In the same order, the values of `COc1ccc2ccccc2c1C=Cc1cc[n+](C)c(-c2cc(C)ccn2)c1.[I-]` [Compound J23] are 570 nm and 430-460 nm.
Regarding `Cc1ccnc(-c2cc(/C=C/c3c[nH]c4ccccc34)cc[n+]2C)c1.[I-]` [Compound J24], the “EM(nm)” value is on record as 560 nm and the “EX(nm)” value is 420-500 nm.
On the same counts, the results for `Cc1ccnc(-c2cc(C=Cc3ccc(N(C)C)c4ccccc34)cc[n+]2C)c1.[I-]` [Compound J27] are 670 nm and 460 nm.
Take `Cc1ccnc(-c2cc(C=Cc3c4ccccc4cc4ccccc34)cc[n+]2C)c1.[I-]` [Compound J34]: the “EM(nm)” value is 630 nm and the “EX(nm)” value amounted to 430 nm.
Consider `Cc1ccnc(-c2cc(C=CC=Cc3ccccc3[N+](=O)[O-])cc[n+]2C)c1.[I-]` [Compound J36], for which the “EM(nm)” value is given as 540 nm and the “EX(nm)” value is 420 nm.
On the same counts, the results for `Cc1ccnc(-c2cc(C=CC=Cc3ccc(N(C)C)cc3)cc[n+]2C)c1.[I-]` [Compound J37] are 730 nm and 550(broad) nm.
For the molecule `Cc1ccnc(-c2cc(/C=C/c3ccccn3)cc[n+]2C)c1.[I-]` [Compound J40], the “EM(nm)” value is on record as 580 nm and the “EX(nm)” value was found to be 400 nm.
As to `Cc1ccnc(-c2cc(C=Cc3ccc4ccc5cccc6ccc3c4c56)cc[n+]2C)c1.[I-]` [Compound J41], the “EM(nm)” value was 630 nm and the “EX(nm)” value was 460 nm.
Turning to `Cc1cccc(C=Cc2ccc(OCc3ccccc3)c(OCc3ccccc3)c2)[n+]1C.[I-]` [Compound L12], the “EM(nm)” value was 520 nm and the “EX(nm)” value worked out at 390 nm.
`COc1cc(C=Cc2cccc(C)[n+]2C)cc(OC)c1OC.[I-]` [Compound L13]: the “EM(nm)” value came to 540 nm and the “EX(nm)” value is recorded as 380 nm.
With `COc1ccc(C=Cc2cccc(C)[n+]2C)c2ccccc12.[I-]` [Compound L14], the “EM(nm)” value is recorded as 570 nm and the “EX(nm)” value is 420 (broad) nm.
Turning to `COc1ccc(C=Cc2cccc(C)[n+]2C)cc1O.[I-]` [Compound L15], the “EM(nm)” value is listed as 570 nm and the “EX(nm)” value is 390 nm.
In the case of `Cc1cccc(C=Cc2ccc(O)cc2)[n+]1C.[I-]` [Compound L16], the “EM(nm)” value worked out at 500 nm and the “EX(nm)” value was found to be 390 nm.
As to `Cc1cccc(/C=C/c2ccc(-c3ccccc3)cc2)[n+]1C.[I-]` [Compound L17], the “EM(nm)” value was found to be 500 nm and the “EX(nm)” value amounted to 420 nm.
Consider `Cc1cccc(/C=C/c2c[nH]c3ccccc23)[n+]1C.[I-]` [Compound L24], for which the “EM(nm)” value is given as 500 nm and the “EX(nm)” value came to 430 nm.
In the same order, the values of `Cc1cccc(C=Cc2ccc(N(C)C)c3ccccc23)[n+]1C.[I-]` [Compound L27] are 620 nm and 430 nm.
Regarding `Cc1cccc(C=C/C=C/c2ccc(N(C)C)cc2)[n+]1C.[I-]` [Compound L37], the “EM(nm)” value is reported as 680 nm and the “EX(nm)” value came to 480 nm.
In the case of `COc1cc(OC)c(OC)cc1C=Cc1cccc(C)[n+]1C.[I-]` [Compound L38], the “EM(nm)” value turned out to be 570 nm and the “EX(nm)” value is 420 nm.
On the same counts, the results for `Cc1cccc(C=Cc2ccc3c(c2)OCO3)[n+]1C.[I-]` [Compound L39] are 510 nm and 390 nm.
